Target: T1, human capsaicin receptor (Homo sapiens, UniProt Q8NER1)
T1 construct: pBK-CMV expression construct encoding the full length human capsaicin receptor; expressed in transfected cells
Experiment: Calcium mobilization assay, determination of antagonist activity (Example 6)
Assay type: cell-based
Conditions: 50% decrease in fluorescence response of cells expressing human capsaicin receptor exposed to capsaicin
Procedure: A cDNA encoding full length human capsaicin receptor (SEQ ID NO:1, 2 or 3 of U.S. Pat. No. 6,482,611) was subcloned in the plasmid pBK-CMV (Stratagene, La Jolla, Calif.) for recombinant expression in mammalian cells.
Human embryonic kidney (HEK293) cells were transfected with the pBK-CMV expression construct encoding the full length human capsaicin receptor using standard methods. The transfected cells were selected for two weeks in media containing G418 (400 μg/ml) to obtain a pool of stably transfected cells. Independent clones were isolated from this pool by limiting dilution to obtain clonal stable cell lines for use in subsequent experiments.
Cells transfected with expression plasmids (as described in Example 4) and thereby expressing human capsaicin receptor are seeded and grown to 70-90% confluency in FALCON black-walled, clear-bottomed 96-well plates (#3904, BECTON-DICKINSON, Franklin Lakes, N.J.). The culture medium is emptied from the 96 well plates and FLUO-3 AM calcium sensitive dye (Molecular Probes, Eugene, Oreg.) is added to each well (dye solution: 1 mg FLUO-3 AM, 440 μL DMSO and 440 μl 20% pluronic acid in DMSO, diluted 1:250 in Krebs-Ringer HEPES (KRH) buffer (25 mM HEPES, 5 mM KCl, 0.96 mM NaH2PO4, 1 mM MgSO4, 2 mM CaCl2, 5 mM glucose, 1 mM probenecid, pH 7.4), 50 μl diluted solution per well). Plates are covered with aluminum foil and incubated at 37° C. for 1-2 hours in an environment containing 5% CO2. After the incubation, the dye is emptied from the plates, and the cells are washed once with KRH buffer, and resuspended in KRH buffer.
To measure the ability of a test compound to agonize or antagonize a calcium mobilization response in cells expressing capsaicin receptors to capsaicin or other vanilloid agonist, the EC50 of the agonist capsaicin is first determined. An additional 20 μl of KRH buffer and 1 μl DMSO is added to each well of cells, prepared as described above. 100 μl capsaicin in KRH buffer is automatically transferred by the FLIPR instrument to each well. Capsaicin-induced calcium mobilization is monitored using either FLUOROSKAN ASCENT (Labsystems; Franklin, Mass.) or FLIPR (fluorometric imaging plate reader system; Molecular Devices, Sunnyvale, Calif.) instruments. Data obtained between 30 and 60 seconds after agonist application are used to generate an 8-point concentration response curve, with final capsaicin concentrations of 1 nM to 3 μM. KALEIDAGRAPH software (Synergy Software, Reading, Pa.) is used to fit the data to the equation: y=a*(1/(1+(b/x)^c)) to determine the 50% excitatory concentration (EC50) for the response. In this equation, y is the maximum fluorescence signal, x is the concentration of the agonist or antagonist (in this case, capsaicin), a is the Emax, b corresponds to the EC50 value and c is the Hill coefficient. Determination of Agonist Activity
Test compounds are dissolved in DMSO, diluted in 20 μl KRH buffer so that the final concentration of test compounds in the assay well is between 1 μM and 5 μM, and added to cells prepared as described above. The 96 well plates containing prepared cells and test compounds are incubated in the dark, at room temperature for 0.5 to 6 hours. It is important that the incubation not continue beyond 6 hours. Just prior to determining the fluorescence response, 100 μl capsaicin in KRH buffer at twice the EC50 concentration determined as described above is automatically added by the FLIPR instrument to each well of the 96 well plate for a final sample volume of 200 μl and a final capsaicin concentration equal to the EC50. The final concentration of test compounds in the assay wells is between 1 μM and […]. […] The concentration of antagonist required to provide a 50% decrease, relative to the response observed in the presence of capsaicin and without antagonist, is the IC50 for the antagonist, and is preferably below 1 micromolar, 100 nanomolar, 10 nanomolar or 1 nanomolar.

T1 sequence (Q8NER1 whole entry): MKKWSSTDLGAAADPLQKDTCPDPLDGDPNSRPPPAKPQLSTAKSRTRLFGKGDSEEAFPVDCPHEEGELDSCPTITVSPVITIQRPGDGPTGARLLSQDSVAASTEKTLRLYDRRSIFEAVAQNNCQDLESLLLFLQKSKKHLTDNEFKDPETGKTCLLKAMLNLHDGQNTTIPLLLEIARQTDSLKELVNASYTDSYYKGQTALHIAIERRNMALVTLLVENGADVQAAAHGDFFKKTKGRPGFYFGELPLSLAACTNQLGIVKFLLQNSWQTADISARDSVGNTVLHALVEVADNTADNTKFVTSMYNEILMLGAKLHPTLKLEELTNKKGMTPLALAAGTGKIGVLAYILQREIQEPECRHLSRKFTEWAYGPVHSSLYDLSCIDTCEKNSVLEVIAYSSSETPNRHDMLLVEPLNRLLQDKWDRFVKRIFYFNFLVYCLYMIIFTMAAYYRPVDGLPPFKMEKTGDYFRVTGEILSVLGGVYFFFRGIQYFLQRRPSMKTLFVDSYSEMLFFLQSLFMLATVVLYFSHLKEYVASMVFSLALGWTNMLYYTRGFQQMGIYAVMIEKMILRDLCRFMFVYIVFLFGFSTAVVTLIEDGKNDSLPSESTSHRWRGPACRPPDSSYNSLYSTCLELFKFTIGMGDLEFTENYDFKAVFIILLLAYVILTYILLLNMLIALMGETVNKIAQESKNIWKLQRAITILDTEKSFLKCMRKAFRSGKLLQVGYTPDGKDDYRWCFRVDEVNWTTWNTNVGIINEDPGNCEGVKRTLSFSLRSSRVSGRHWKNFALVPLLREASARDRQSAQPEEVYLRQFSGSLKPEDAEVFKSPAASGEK

IC50, ≤ 1 µM:
CCCNc1nc(Nc2ccc(C(F)(F)F)cc2)nc(N2CCN(c3ncccc3Cl)C[C@H]2C)n1 [Compound 22, 6-[4-(3-Chloro-pyridin-2-yl)-2-methyl-piperazin-1-yl]-N-propyl-N′-(4-trifluoromethyl-phenyl)-[1,3,5]triazine-2,4-diamine (R)]
FC(F)(F)c1ccc(Nc2nc(N3CCOCC3)nc(N3CCN(c4ncccc4C(F)(F)F)CC3)n2)cc1 [Compound 23, {4-Morpholin-4-yl-6-[4-(3-trifluoromethyl-pyridin-2-yl)-piperazin-1-yl]-[1,3,5]triazin-2-yl}-(4-trifluoromethyl-phenyl)-amine]
C[C@@H]1CN(c2ncccc2Cl)CCN1c1nc(Cl)nc(Nc2ccc(C(F)(C(F)(F)F)C(F)(F)F)cc2)n1 [Compound 24, {4-Chloro-6-[4-(3-chloro-pyridin-2-yl)-2-methyl-piperazin-1-yl]-[1,3,5]triazin-2-yl}-[4-(1,2,2,2-tetrafluoro-1-trifluoromethyl-ethyl)-phenyl]-amine (R)]
CCCNc1nc(Nc2ccc(C(F)(C(F)(F)F)C(F)(F)F)cc2)nc(N2CCN(c3ncccc3Cl)C[C@H]2C)n1 [Compound 25, 6-[4-(3-Chloro-pyridin-2-yl)-2-methyl-piperazin-1-yl]-N-propyl-N′-[4-(1,2,2,2-tetrafluoro-1-trifluoromethyl-ethyl)-phenyl]-[1,3,5]triazine-2,4-diamine (R)]
CC(C)CNc1nc(Nc2ccc(C(F)(C(F)(F)F)C(F)(F)F)cc2)nc(N2CCN(c3ncccc3Cl)C[C@H]2C)n1 [Compound 26, 6-[4-(3-Chloro-pyridin-2-yl)-2-methyl-piperazin-1-yl]-N-isobutyl-N′-[4-(1,2,2,2-tetrafluoro-1-trifluoromethyl-ethyl)-phenyl]-[1,3,5]triazine-2,4-diamine (R)]
CCC(C)Nc1nc(Nc2ccc(C(F)(C(F)(F)F)C(F)(F)F)cc2)nc(N2CCN(c3ncccc3Cl)C[C@H]2C)n1 (stereo partly drawn) [Compound 27, N-sec-Butyl-6-[4-(3-chloro-pyridin-2-yl)-2-methyl-piperazin-1-yl]-N′-[4-(1,2,2,2-tetrafluoro-1-trifluoromethyl-ethyl)-phenyl]-[1,3,5]triazine-2,4-diamine (R)]
CCCN(C)c1nc(Nc2ccc(C(F)(F)F)cc2)nc(N2CCN(c3ncccc3Cl)C[C@H]2C)n1 [Compound 30, 6-[4-(3-Chloro-pyridin-2-yl)-2-methyl-piperazin-1-yl]-N-methyl-N-propyl-N′-(4-trifluoromethyl-phenyl)-[1,3,5]triazine-2,4-diamine (R)]
CCCCN(C)c1nc(Nc2ccc(C(F)(F)F)cc2)nc(N2CCN(c3ncccc3Cl)C[C@H]2C)n1 [Compound 31, N-Butyl-6-[4-(3-chloro-pyridin-2-yl)-2-methyl-piperazin-1-yl]-N-methyl-N′-(4-trifluoromethyl-phenyl)-[1,3,5]triazine-2,4-diamine (R)]
C=CCN(CC=C)c1nc(Nc2ccc(C(F)(F)F)cc2)nc(N2CCN(c3ncccc3Cl)C[C@H]2C)n1 [Compound 32, N,N-Diallyl-6-[4-(3-chloro-pyridin-2-yl)-2-methyl-piperazin-1-yl]-N′-(4-trifluoromethyl-phenyl)-[1,3,5]triazine-2,4-diamine (R)]
CCCN(CCC)c1nc(Nc2ccc(C(F)(F)F)cc2)nc(N2CCN(c3ncccc3Cl)C[C@H]2C)n1 [Compound 33, 6-[4-(3-Chloro-pyridin-2-yl)-2-methyl-piperazin-1-yl]-N,N-dipropyl-N′-(4-trifluoromethyl-phenyl)-[1,3,5]triazine-2,4-diamine (R)]
CCCCN(CCCC)c1nc(Nc2ccc(C(F)(F)F)cc2)nc(N2CCN(c3ncccc3Cl)C[C@H]2C)n1 [Compound 34, N,N-Dibutyl-6-[4-(3-chloro-pyridin-2-yl)-2-methyl-piperazin-1-yl]-N′-(4-trifluoromethyl-phenyl)-[1,3,5]triazine-2,4-diamine (R)]
CC(C)N(C)c1nc(Nc2ccc(C(F)(F)F)cc2)nc(N2CCN(c3ncccc3Cl)C[C@H]2C)n1 [Compound 35, 6-[4-(3-Chloro-pyridin-2-yl)-2-methyl-piperazin-1-yl]-N-isopropyl-N-methyl-N′-(4-trifluoromethyl-phenyl)-[1,3,5]triazine-2,4-diamine (R)]
C[C@@H]1CN(c2ncccc2Cl)CCN1c1nc(NCc2cccc(C(F)(F)F)c2)nc(Nc2ccc(C(F)(F)F)cc2)n1 [Compound 37, 6-[4-(3-Chloro-pyridin-2-yl)-2-methyl-piperazin-1-yl]-N-(3-trifluoromethyl-benzyl)-N′-(4-trifluoromethyl-phenyl)-[1,3,5]triazine-2,4-diamine (R)]
C[C@@H]1CN(c2ncccc2Cl)CCN1c1nc(NCc2ccccc2)nc(Nc2ccc(C(F)(F)F)cc2)n1 [Compound 38, N-Benzyl-6-[4-(3-chloro-pyridin-2-yl)-2-methyl-piperazin-1-yl]-N′-(4-trifluoromethyl-phenyl)-[1,3,5]triazine-2,4-diamine (R)]
CC(C)CCNc1nc(Nc2ccc(C(F)(F)F)cc2)nc(N2CCN(c3ncccc3Cl)C[C@H]2C)n1 [Compound 39, 6-[4-(3-Chloro-pyridin-2-yl)-2-methyl-piperazin-1-yl]-N-(3-methyl-butyl)-N′-(4-trifluoromethyl-phenyl)-[1,3,5]triazine-2,4-diamine (R)]
CC(C)CNc1nc(Nc2ccc(C(F)(F)F)cc2)nc(N2CCN(c3ncccc3Cl)C[C@H]2C)n1 [Compound 40, 6-[4-(3-Chloro-pyridin-2-yl)-2-methyl-piperazin-1-yl]-N-isobutyl-N′-(4-trifluoromethyl-phenyl)-[1,3,5]triazine-2,4-diamine (R)]
C[C@@H]1CN(c2ncccc2Cl)CCN1c1nc(NCCCc2ccccc2)nc(Nc2ccc(C(F)(F)F)cc2)n1 [Compound 41, 6-[4-(3-Chloro-pyridin-2-yl)-2-methyl-piperazin-1-yl]-N-(3-phenyl-propyl)-N′-(4-trifluoromethyl-phenyl)-[1,3,5]triazine-2,4-diamine (R)]
CN(C)c1nc(Nc2ccc(C(F)(F)F)cc2)nc(N2CCN(c3ccccc3)CC2)n1 [Compound 42, N,N-Dimethyl-6-(4-phenyl-piperazin-1-yl)-N′-(4-trifluoromethyl-phenyl)-[1,3,5]triazine-2,4-diamine]
CN(C)c1nc(Nc2ccc(C(F)(F)F)cc2)nc(N2CCN(c3ccccn3)CC2)n1 [Compound 43, N,N-Dimethyl-6-(4-pyridin-2-yl-piperazin-1-yl)-N′-(4-trifluoromethyl-phenyl)-[1,3,5]triazine-2,4-diamine]
CN(C)c1nc(Nc2ccc(C(F)(F)F)cc2)nc(N2CCN(c3ncccc3Cl)CC2)n1 [Compound 44, 6-[4-(3-Chloro-pyridin-2-yl)-piperazin-1-yl]-N,N-dimethyl-N′-(4-trifluoromethyl-phenyl)-[1,3,5]triazine-2,4-diamine]
FC(F)(F)c1ccc(Nc2nc(Cl)nc(N3CCN(c4ncccc4Cl)CC3)n2)cc1 [Compound 45, {4-Chloro-6-[4-(3-chloro-pyridin-2-yl)-piperazin-1-yl]-[1,3,5]triazin-2-yl}-(4-trifluoromethyl-phenyl)-amine]
CNc1nc(Nc2ccc(C(F)(F)F)cc2)nc(N2CCN(c3ncccc3Cl)CC2)n1 [Compound 46, 6-[4-(3-Chloro-pyridin-2-yl)-piperazin-1-yl]-N-methyl-N′-(4-trifluoromethyl-phenyl)-[1,3,5]triazine-2,4-diamine]
